Source: ChEMBL document CHEMBL1136052, “Identification of novel cyclooxygenase-2 selective inhibitors using pharmacophore models” (J Med Chem, 2002)
Each block holds one compound with its values, some of them ahead of it.

Assays:
[1] = biological target: Prostaglandin G/H synthase 1 (Homo sapiens) (UniProt P23219); experiment: Percent inhibition of arachidonic acid induced TXB2 generation in isolated human platelets (Prostaglandin G/H synthase 1 cell assay) at 10 uM; type: functional
[2] = biological target: Prostaglandin G/H synthase 1 (Homo sapiens) (UniProt P23219); conditions: 100 uM
[3] = biological target: T1, Prostaglandin G/H synthase 2 (Homo sapiens) (UniProt P35354); experiment: % Inhibition of Prostaglandin G/H synthase 2 activity was evaluated at 10 uM concentration, in human whole blood as LPS-induced PGE-2 generation; type: functional, tissue-based
T1 sequence (whole entry): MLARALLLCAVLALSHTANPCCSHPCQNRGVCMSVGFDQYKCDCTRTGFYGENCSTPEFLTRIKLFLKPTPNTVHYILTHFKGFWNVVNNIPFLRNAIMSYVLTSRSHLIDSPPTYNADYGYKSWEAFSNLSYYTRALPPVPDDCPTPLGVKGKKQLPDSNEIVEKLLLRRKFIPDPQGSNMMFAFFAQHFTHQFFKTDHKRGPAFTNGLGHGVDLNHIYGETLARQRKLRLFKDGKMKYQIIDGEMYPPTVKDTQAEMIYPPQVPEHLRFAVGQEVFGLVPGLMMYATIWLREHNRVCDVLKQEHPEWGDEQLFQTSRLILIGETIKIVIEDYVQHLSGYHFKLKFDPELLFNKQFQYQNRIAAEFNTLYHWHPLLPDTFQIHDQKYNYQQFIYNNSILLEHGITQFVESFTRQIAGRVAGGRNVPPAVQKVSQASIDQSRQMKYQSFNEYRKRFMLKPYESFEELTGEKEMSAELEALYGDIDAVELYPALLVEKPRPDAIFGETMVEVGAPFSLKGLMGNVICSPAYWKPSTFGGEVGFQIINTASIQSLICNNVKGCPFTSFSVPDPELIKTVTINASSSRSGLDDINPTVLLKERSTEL

[4] = biological target: Prostaglandin G/H synthase 1 (Homo sapiens) (UniProt P23219); experiment: Percent inhibition of arachidonic acid induced TXB2 generation in isolated human platelets (Prostaglandin G/H synthase 1 cell assay) at 10 uM.; type: functional
[5] = biological target: T2, Prostaglandin G/H synthase 2 (Homo sapiens, UniProt P35354); experiment: Inhibition of PGE-2 generation in LPS-stimulated human monocytes (Prostaglandin G/H synthase 2 assay)
T2 sequence (P35354 whole entry): T1 sequence (whole entry)

Chain of Prostaglandin G/H synthase 1 (Homo sapiens) (P23219 whole entry): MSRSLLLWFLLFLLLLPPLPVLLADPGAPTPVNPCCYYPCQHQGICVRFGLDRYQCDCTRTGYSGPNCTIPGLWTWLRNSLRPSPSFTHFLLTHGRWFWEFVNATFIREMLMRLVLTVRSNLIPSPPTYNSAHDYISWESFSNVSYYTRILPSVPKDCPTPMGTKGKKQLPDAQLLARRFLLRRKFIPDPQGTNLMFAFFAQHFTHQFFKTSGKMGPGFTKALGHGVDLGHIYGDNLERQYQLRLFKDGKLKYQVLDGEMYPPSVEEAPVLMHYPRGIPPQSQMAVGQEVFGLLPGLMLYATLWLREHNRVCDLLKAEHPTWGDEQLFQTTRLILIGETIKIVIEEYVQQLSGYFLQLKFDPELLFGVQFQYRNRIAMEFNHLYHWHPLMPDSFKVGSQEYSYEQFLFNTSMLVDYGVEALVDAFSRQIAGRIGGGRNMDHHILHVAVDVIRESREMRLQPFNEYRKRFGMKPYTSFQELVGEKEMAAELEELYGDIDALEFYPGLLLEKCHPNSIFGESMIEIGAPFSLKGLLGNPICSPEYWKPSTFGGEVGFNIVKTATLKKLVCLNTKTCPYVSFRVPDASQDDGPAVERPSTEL

SMILES: COC(=O)c1cc2cc(S(C)(=O)=O)ccc2n1Cc1ccc(Br)cc1
inhibition [1]: 25%

SMILES: COC(=O)c1cc2cc(S(C)(=O)=O)ccc2n1Cc1ccc(OC)cc1
inhibition [1]: 15% | inhibition [2]: 54%

SMILES: COC(=O)c1cc2cc(S(C)(=O)=O)ccc2n1C(=O)c1ccc(Cl)cc1
inhibition [3]: < 25% | inhibition [4]: 16% | IC50 [5]: 0.73 µM

SMILES: COC(=O)c1cc2cc(S(C)(=O)=O)ccc2n1Cc1ccc([N+](=O)[O-])cc1
inhibition [1]: 0%

SMILES: CS(=O)(=O)c1ccc2c(c1)cc(C(=O)O)n2Cc1ccc(Cl)cc1
inhibition [1]: 37%

Now from value to compound:

inhibition [4]: 15%
SMILES: COC(=O)c1cc2cc(S(C)(=O)=O)ccc2n1C(=O)c1ccc(Br)cc1

inhibition [1]: 19% | inhibition [2]: 25%
SMILES: COC(=O)c1cc2cc(S(C)(=O)=O)ccc2n1Cc1ccc(Cl)cc1
